Reference: patent US12077503B2, “Substituted cyclic amides and their use as herbicides” (FMC CORPORATION, priority 2015, dated 2024)

Columns and labels:
Type in all cases: in vivo
[1] = system: barnyardgrass (Echinochloa crus-galli); assay: Test G Pre-Emergence Protocol; settings: Echinochloa crus-galli, pre-emergence, 312 h, evaluated after 13 days; for pest or weed control at 15.625 g/ha: 15.625 g ai/ha, read-out: Barnyard grass damage rating (100=total damage to plant; 0=no damage to plant); for pest or weed control at 62.5 g/ha: 62.5 g ai/ha, 100=total damage to plant, 0=no damage to plant, read-out: plant damage rating, Barnyardgrass; for pest or weed control at 250 g/ha: 250 g ai/ha, read-out: Barnyardgrass damage rating (100=total damage to plant; 0=no damage to plant)
Procedure, shortened: (§1)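 Scores are visual damage ratings from 0 (no damage) to 100 (total plant kill), taken 13 days after treatment. Compound was sprayed one day post-sowing at 15.625, 62.5 or 250 g/ha in 50:50 acetone/water with 0.5% Tween 20.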

[2] = system: corn (Zea mays); assay: Test G Pre-Emergence Protocol; settings: Zea mays, pre-emergence, 312 h, evaluated after 13 days; for plant injury at 15.625 g/ha: 15.625 g ai/ha; for plant injury at 15.625 g/ha / plant injury at 250 g/ha: read-out: Corn damage rating (100=total damage to plant; 0=no damage to plant); for plant injury at 62.5 g/ha: 62.5 g ai/ha, 100=total damage to plant, 0=no damage to plant, read-out: plant damage rating, Corn; for plant injury at 250 g/ha: 250 g ai/ha
Procedure, shortened: as §1

[3] = system: giant foxtail (Setaria faberi); assay: Test G Pre-Emergence Protocol; settings: Setaria faberi, pre-emergence, 312 h, evaluated after 13 days; for pest or weed control at 15.625 g/ha: 15.625 g ai/ha; for pest or weed control at 15.625 g/ha / pest or weed control at 250 g/ha: read-out: Foxtail, Giant damage rating (100=total damage to plant; 0=no damage to plant); for pest or weed control at 62.5 g/ha: 62.5 g ai/ha, 100=total damage to plant, 0=no damage to plant, read-out: plant damage rating, Foxtail, Giant; for pest or weed control at 250 g/ha: 250 g ai/ha
Procedure, shortened: as §1

[4] = system: ivy-leaved morning glory (Ipomoea hederacea); assay: Test G Pre-Emergence Protocol; settings: Ipomoea, pre-emergence, 312 h, evaluated after 13 days; for pest or weed control at 15.625 g/ha: 15.625 g ai/ha, read-out: Morning-glory, Ivy-leaved damage rating (100=total damage to plant; 0=no damage to plant); for pest or weed control at 62.5 g/ha: 62.5 g ai/ha, 100=total damage to plant, 0=no damage to plant, read-out: plant damage rating, Morningglory, Ivy-leaved; for pest or weed control at 250 g/ha: 250 g ai/ha, read-out: Morningglory, Ivy-leaved damage rating (100=total damage to plant; 0=no damage to plant)
Procedure, shortened: as §1

[5] = system: redroot pigweed (Amaranthus retroflexus); assay: Test G Pre-Emergence Protocol; settings: Amaranthus retroflexus, pre-emergence, 312 h, evaluated after 13 days; for pest or weed control at 15.625 g/ha: 15.625 g ai/ha; for pest or weed control at 15.625 g/ha / pest or weed control at 250 g/ha: read-out: Pigweed, Redroot damage rating (100=total damage to plant; 0=no damage to plant); for pest or weed control at 62.5 g/ha: 62.5 g ai/ha, 100=total damage to plant, 0=no damage to plant, read-out: plant damage rating, Pigweed, Redroot; for pest or weed control at 250 g/ha: 250 g ai/ha
Procedure, shortened: as §1

[6] = system: velvetleaf (Abutilon theophrasti); assay: Test G Pre-Emergence Protocol; settings: Abutilon theophrasti, pre-emergence, 312 h, evaluated after 13 days; for pest or weed control at 15.625 g/ha: 15.625 g ai/ha; for pest or weed control at 15.625 g/ha / pest or weed control at 250 g/ha: read-out: Velvetleaf damage rating (100=total damage to plant; 0=no damage to plant); for pest or weed control at 62.5 g/ha: 62.5 g ai/ha, 100=total damage to plant, 0=no damage to plant, read-out: plant damage rating, Velvetleaf; for pest or weed control at 250 g/ha: 250 g ai/ha
Procedure, shortened: as §1

[7] = system: barnyardgrass (Echinochloa crus-galli); assay: Test G Post-Emergence Protocol; settings: Echinochloa crus-galli, post-emergence, 312 h; for pest or weed control at 15.625 g/ha: 15.625 g ai/ha, evaluated after 13 days (100=total damage to plant; 0=no damage to plant), read-out: Barnyardgrass damage rating; for pest or weed control at 62.5 g/ha: 62.5 g ai/ha, read-out: Barnyardgrass damage rating (100=total damage to plant; 0=no damage to plant); for pest or weed control at 62.5 g/ha / pest or weed control at 250 g/ha: evaluated after 13 days; for pest or weed control at 250 g/ha: 250 g ai/ha, read-out: damage to plant, Barnyardgrass (100=total damage to plant; 0=no damage to plant)
Procedure, shortened: (§2)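 A glasshouse post-emergence test: 8-day-old plants sprayed at 15.625, 62.5 or 250 g/ha, then grown at 24/16 °C day/night with 14 h light and 65% humidity. Damage rated 13 days later, 0–100.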

[8] = system: corn (Zea mays); assay: Test G Post-Emergence Protocol; settings: Zea mays, post-emergence, 312 h; for plant injury at 15.625 g/ha: 15.625 g ai/ha, evaluated after 13 days (100=total damage to plant; 0=no damage to plant), read-out: Corn damage rating; for plant injury at 62.5 g/ha: 62.5 g ai/ha, read-out: Corn damage rating (100=total damage to plant; 0=no damage to plant); for plant injury at 62.5 g/ha / plant injury at 250 g/ha: evaluated after 13 days; for plant injury at 250 g/ha: 250 g ai/ha, read-out: damage to plant, Corn (100=total damage to plant; 0=no damage to plant)
Procedure, shortened: as §2

[9] = system: giant foxtail (Setaria faberi); assay: Test G Post-Emergence Protocol; settings: Setaria faberi, post-emergence, 312 h; for pest or weed control at 15.625 g/ha: 15.625 g ai/ha, evaluated after 13 days (100=total damage to plant; 0=no damage to plant), read-out: Foxtail, Giant damage rating; for pest or weed control at 62.5 g/ha: 62.5 g ai/ha, read-out: Foxtail, Giant damage rating (100=total damage to plant; 0=no damage to plant); for pest or weed control at 62.5 g/ha / pest or weed control at 250 g/ha: evaluated after 13 days; for pest or weed control at 250 g/ha: 250 g ai/ha, read-out: damage to plant, Foxtail, Giant (100=total damage to plant; 0=no damage to plant)
Procedure, shortened: as §2

[10] = system: ivy-leaved morning glory (Ipomoea hederacea); assay: Test G Post-Emergence Protocol; settings: Ipomoea, post-emergence, 312 h; for pest or weed control at 15.625 g/ha: 15.625 g ai/ha, evaluated after 13 days (100=total damage to plant; 0=no damage to plant), read-out: Morningglory, Ivy-leaved damage rating; for pest or weed control at 62.5 g/ha: 62.5 g ai/ha, read-out: Morningglory, Ivy-leaved damage rating (100=total damage to plant; 0=no damage to plant); for pest or weed control at 62.5 g/ha / pest or weed control at 250 g/ha: evaluated after 13 days; for pest or weed control at 250 g/ha: 250 g ai/ha, read-out: damage to plant, Morningglory, Ivy-leaved (100=total damage to plant; 0=no damage to plant)
Procedure, shortened: as §2

[11] = system: redroot pigweed (Amaranthus retroflexus); assay: Test G Post-Emergence Protocol; settings: Amaranthus retroflexus, post-emergence, 312 h; for pest or weed control at 15.625 g/ha: 15.625 g ai/ha, evaluated after 13 days (100=total damage to plant; 0=no damage to plant), read-out: Pigweed, Redroot damage rating; for pest or weed control at 62.5 g/ha: 62.5 g ai/ha, read-out: Pigweed, Redroot damage rating (100=total damage to plant; 0=no damage to plant); for pest or weed control at 62.5 g/ha / pest or weed control at 250 g/ha: evaluated after 13 days; for pest or weed control at 250 g/ha: 250 g ai/ha, read-out: damage to plant, Pigweed, Redroot (100=total damage to plant; 0=no damage to plant)
Procedure, shortened: as §2

[12] = system: velvetleaf (Abutilon theophrasti); assay: Test G Post-Emergence Protocol; settings: Abutilon theophrasti, post-emergence, 312 h; for pest or weed control at 15.625 g/ha: 15.625 g ai/ha, evaluated after 13 days (100=total damage to plant; 0=no damage to plant), read-out: Velvetleaf damage rating; for pest or weed control at 62.5 g/ha: 62.5 g ai/ha, read-out: Velvetleaf damage rating (100=total damage to plant; 0=no damage to plant); for pest or weed control at 62.5 g/ha / pest or weed control at 250 g/ha: evaluated after 13 days; for pest or weed control at 250 g/ha: 250 g ai/ha, read-out: damage to plant, Velvetleaf (100=total damage to plant; 0=no damage to plant)
Procedure, shortened: as §2

Structure (SMILES) | pest or weed control at 15.625 g/ha [1] | pest or weed control at 62.5 g/ha [1] | pest or weed control at 250 g/ha [1] | plant injury at 15.625 g/ha [2] | plant injury at 62.5 g/ha [2] | plant injury at 250 g/ha [2] | pest or weed control at 15.625 g/ha [3] | pest or weed control at 62.5 g/ha [3] | pest or weed control at 250 g/ha [3] | pest or weed control at 15.625 g/ha [4] | pest or weed control at 62.5 g/ha [4] | pest or weed control at 250 g/ha [4] | pest or weed control at 15.625 g/ha [5] | pest or weed control at 62.5 g/ha [5] | pest or weed control at 250 g/ha [5] | pest or weed control at 15.625 g/ha [6] | pest or weed control at 62.5 g/ha [6] | pest or weed control at 250 g/ha [6] | pest or weed control at 15.625 g/ha [7] | pest or weed control at 62.5 g/ha [7] | also measured
Cc1ncc(NC(=O)[C@@H]2C(=O)N(C)C[C@H]2c2ccc(C(F)(F)F)cc2)s1 (racemic) [Compound 1595] | 0% | 0% | 0% | 0% | 0% | 0% | 0% | 0% | 0% | 0% | 0% | 0% | 0% | 0% | 0% | 0% | 0% | 0% | 10% | 10% | pest or weed control at 250 g/ha [7]: 10%; plant injury at 15.625 g/ha [8]: 0%; plant injury at 62.5 g/ha [8]: 60%; plant injury at 250 g/ha [8]: 0%; pest or weed control at 15.625 g/ha [9]: 0%; pest or weed control at 62.5 g/ha [9]: 0%; pest or weed control at 250 g/ha [9]: 10%; pest or weed control at 15.625 g/ha [10]: 0%; pest or weed control at 62.5 g/ha [10]: 60%; pest or weed control at 250 g/ha [10]: 20%; pest or weed control at 15.625 g/ha [11]: 0%; pest or weed control at 62.5 g/ha [11]: 10%; pest or weed control at 250 g/ha [11]: 20%; pest or weed control at 15.625 g/ha [12]: 0%; pest or weed control at 62.5 g/ha [12]: 10%; pest or weed control at 250 g/ha [12]: 10%
Cc1cccc(NC(=O)[C@@H]2C(=O)N(C)C[C@H]2c2ccc(C(F)(F)F)cc2)c1Br (racemic) [Compound 1617] | 10% | 30% | 80% | 0% | 0% | 0% | 20% | 80% | 90% | 0% | 0% | 0% | 0% | 10% | 20% | 0% | 0% | 10% | 0% | 0% | pest or weed control at 250 g/ha [7]: 60%; plant injury at 15.625 g/ha [8]: 0%; plant injury at 62.5 g/ha [8]: 0%; plant injury at 250 g/ha [8]: 0%; pest or weed control at 15.625 g/ha [9]: 20%; pest or weed control at 62.5 g/ha [9]: 40%; pest or weed control at 250 g/ha [9]: 70%; pest or weed control at 15.625 g/ha [10]: 0%; pest or weed control at 62.5 g/ha [10]: 0%; pest or weed control at 250 g/ha [10]: 0%; pest or weed control at 15.625 g/ha [11]: 0%; pest or weed control at 62.5 g/ha [11]: 0%; pest or weed control at 250 g/ha [11]: 0%; pest or weed control at 15.625 g/ha [12]: 0%; pest or weed control at 62.5 g/ha [12]: 0%; pest or weed control at 250 g/ha [12]: 0%
